The numbers were not newly measured in patent publication US20220184159A1, “METHOD OF BOOSTING INNATE IMMUNITY” (UNIVERSITY OF THE SUNSHINE COAST, priority 2018, published 2022), which cites them from elsewhere.

For series [1] the following is noted: administered in the feed, fish.
The subject of another series is immune system of fish. The following applies: carp, rainbow trout, turbot and Atlantic cod.

Regarding `CN(C)[C@@H]1C(O)=C(C(N)=O)C(=O)[C@@]2(O)C(O)=C3C(=O)c4c(O)cccc4[C@@](C)(O)[C@H]3[C@H](O)[C@@H]12` [Oxytetracycline], the “ingested oxytetracycline excreted intact in the faeces” value in series [1] is 70-80%. Moreover, in the series with immune system of fish, the “effect on the immune system of fish” value is on record as “immunosuppressive effects”.
